Each molecule was assayed against T1, PN3 (Homo sapiens, UniProt Q9Y5Y9) (assay: 14C Guanidinium Ion Influx Binding Assay (flux assay)). Settings: activity towards PN3, PN3 stably expressed in a host cell line, deltamethrine 10 μM.
T1 construct: expressed in transfected cells
Format: cell-based
Experimental: ^14C Guanidinium Ion Influx Binding Assay
PN3 stably expressed in a host cell line were maintained in DMEM with 5% fetal bovine serum and 300 μg/ml G-418. The cells were subcultured and grown to confluence in 96-well plates 24–48 h before each experiment. After the growth medium was removed, the cells were washed with warm buffer (25 mM Hepes-Tris, 135 mM choline chloride, 5.4 mM potassium chloride, 0.98 mM magnesium sulfate, 5.5 mM glucose, and 1 mg/ml BSA, pH 7.4) and incubated in buffer on a 36° C. slide warmer for approximately 10 minutes. Various concentrations of the test compounds or standard sodium channel blockers (10 μM) and then deltamethrine (10 μM) were added to each well. After the cells were exposed to deltamethrine for 5 minutes, 5 μM of ^14C-guanidinium was added, incubated with the radioligand (30–60 min), washed with ice-cold buffer, and dissolved in 0.1N sodium hydroxide. The radioactivity and the protein concentration of each cell lysate were determined by liquid scintillation counting and the protein assay using Pierce BCA reagent.

T1 sequence (Q9Y5Y9 whole entry, species assumed): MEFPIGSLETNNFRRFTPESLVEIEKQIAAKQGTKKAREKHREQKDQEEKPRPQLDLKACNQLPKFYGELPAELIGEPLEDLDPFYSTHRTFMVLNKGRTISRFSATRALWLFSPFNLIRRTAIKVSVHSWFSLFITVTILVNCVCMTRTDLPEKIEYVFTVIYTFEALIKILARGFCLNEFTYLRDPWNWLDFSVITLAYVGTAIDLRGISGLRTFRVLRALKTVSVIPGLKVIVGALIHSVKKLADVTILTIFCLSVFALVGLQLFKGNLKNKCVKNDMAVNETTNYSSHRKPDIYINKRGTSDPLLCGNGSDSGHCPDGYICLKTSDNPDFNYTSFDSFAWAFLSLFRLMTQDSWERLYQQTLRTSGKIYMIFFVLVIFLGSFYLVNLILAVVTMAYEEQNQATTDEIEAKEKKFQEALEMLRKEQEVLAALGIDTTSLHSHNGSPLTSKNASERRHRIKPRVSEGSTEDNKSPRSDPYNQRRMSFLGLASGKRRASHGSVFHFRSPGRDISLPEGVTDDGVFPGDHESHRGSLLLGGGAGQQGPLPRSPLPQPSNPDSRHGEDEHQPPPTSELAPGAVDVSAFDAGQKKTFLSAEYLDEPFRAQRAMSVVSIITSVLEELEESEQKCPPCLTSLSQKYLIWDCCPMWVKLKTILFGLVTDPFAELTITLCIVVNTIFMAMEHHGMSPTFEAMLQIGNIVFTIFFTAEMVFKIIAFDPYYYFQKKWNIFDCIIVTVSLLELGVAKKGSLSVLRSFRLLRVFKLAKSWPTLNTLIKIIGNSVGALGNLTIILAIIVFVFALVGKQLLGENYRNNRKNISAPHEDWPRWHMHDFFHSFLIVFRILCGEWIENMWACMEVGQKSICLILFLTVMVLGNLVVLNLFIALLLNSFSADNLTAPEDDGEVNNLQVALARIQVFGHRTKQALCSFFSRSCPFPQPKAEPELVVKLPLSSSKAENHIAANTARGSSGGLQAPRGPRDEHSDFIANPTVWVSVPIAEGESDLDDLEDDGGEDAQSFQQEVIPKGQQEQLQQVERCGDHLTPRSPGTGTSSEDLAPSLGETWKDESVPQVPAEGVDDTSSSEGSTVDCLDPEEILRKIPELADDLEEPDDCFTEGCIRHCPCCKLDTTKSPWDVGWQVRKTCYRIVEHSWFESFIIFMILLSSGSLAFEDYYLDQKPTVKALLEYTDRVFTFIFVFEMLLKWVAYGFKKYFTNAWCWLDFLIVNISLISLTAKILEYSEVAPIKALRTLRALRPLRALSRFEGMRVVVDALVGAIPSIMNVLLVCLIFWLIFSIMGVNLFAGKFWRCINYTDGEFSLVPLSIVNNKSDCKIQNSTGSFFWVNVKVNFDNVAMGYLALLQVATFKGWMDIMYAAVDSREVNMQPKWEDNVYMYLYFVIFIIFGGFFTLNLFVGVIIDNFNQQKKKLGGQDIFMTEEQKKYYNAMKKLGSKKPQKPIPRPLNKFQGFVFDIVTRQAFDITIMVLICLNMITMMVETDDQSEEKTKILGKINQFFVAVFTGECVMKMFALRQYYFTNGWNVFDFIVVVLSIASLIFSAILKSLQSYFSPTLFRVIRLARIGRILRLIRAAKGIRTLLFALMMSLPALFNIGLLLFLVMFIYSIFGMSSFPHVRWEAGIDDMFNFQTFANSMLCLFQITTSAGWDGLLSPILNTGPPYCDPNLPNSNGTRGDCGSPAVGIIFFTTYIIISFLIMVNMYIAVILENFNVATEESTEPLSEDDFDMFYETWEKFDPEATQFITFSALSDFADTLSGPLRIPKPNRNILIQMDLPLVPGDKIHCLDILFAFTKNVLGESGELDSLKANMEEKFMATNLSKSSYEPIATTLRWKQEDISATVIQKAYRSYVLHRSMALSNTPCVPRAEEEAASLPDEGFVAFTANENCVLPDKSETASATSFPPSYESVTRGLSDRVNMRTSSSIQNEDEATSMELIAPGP

Row | Structure (SMILES) | IC50 [µM]
1 | Cn1nc(-c2ccccc2)cc1NC(=O)c1cnn(-c2ccc(Cl)cc2)c1C(F)(F)F [Compound 20, 1-(4-Chloro-phenyl)-5-trifluoromethyl-1H-pyrazole-4-carboxylic acid (2-methyl-5-phenyl-2H-pyrazol-3-yl)-amide] | 0.1 to 4
2 | O=C(Nc1ccncc1)c1cnn(-c2ccc(Cl)cc2)c1C(F)(F)F [Compound 23, 1-(4-Chloro-phenyl)-5-trifluoromethyl-1H-pyrazole-4-carboxylic acid pyridin-4-ylamide] | 4.1 to 10
3 | CCCc1c(C(=O)NC(Cc2ccccc2)C(=O)OC)cnn1-c1ccccc1 (stereo not shown) [Compound 39, 3-Phenyl-2-[(1-phenyl-5-propyl-1H-pyrazole-4-carbonyl)-amino]-propionic acid methyl ester] | 0.1 to 4
4 | O=C(NCCc1ccccc1)c1cnn(-c2ccc(Cl)cc2)c1C(F)(F)F [Compound 114, 1-(4-Chloro-phenyl)-5-trifluoromethyl-1H-pyrazole-4-carboxylic acid phenethyl-amide] | 10.1 to 30
5 | CS(=O)(=O)c1cccc(NC(=O)c2cnn(-c3ccc(Cl)cc3)c2C(F)(F)F)c1 [Compound 154, 1-(4-Chloro-phenyl)-5-trifluoromethyl-1H-pyrazole-4-carboxylic acid (3-methanesulfonyl-phenyl)-amide] | 0.1 to 4
6 | O=C(NCCc1cccc(F)c1)c1cnn(-c2ccc(Cl)cc2)c1C(F)(F)F [Compound 323, 1-(4-Chloro-phenyl)-5-trifluoromethyl-1H-pyrazole-4-carboxylic acid [2-(3-fluoro-phenyl)-ethyl]-amide] | 0.1 to 4
7 | O=C(NCCc1ccc(F)cc1)c1cnn(-c2ccc(Cl)cc2)c1C(F)(F)F [Compound 411, 1-(4-Chloro-phenyl)-5-trifluoromethyl-1H-pyrazole-4-carboxylic acid [2-(4-fluoro-phenyl)-ethyl]-amide] | 0.1 to 4
8 | O=C(NCCc1ccccc1Cl)c1cnn(-c2ccc(Cl)cc2)c1C(F)(F)F [Compound 414, 1-(4-Chloro-phenyl)-5-trifluoromethyl-1H-pyrazole-4-carboxylic acid [2-(2-chloro-phenyl)-ethyl]-amide] | 0.1 to 4
9 | O=C(NCc1ccc(C(F)(F)F)cc1)c1cnn(-c2ccccc2)c1C(F)(F)F [Compound 444, 1-Phenyl-5-trifluoromethyl-1H-pyrazole-4-carboxylic acid 4-trifluoromethyl-benzylamide] | 4.1 to 10
10 | O=C(NCCc1cccc(Cl)c1)c1cnn(-c2cccc(Cl)c2)c1 [Compound 449, 1-(3-Chloro-phenyl)-1H-pyrazole-4-carboxylic acid [2-(3-chloro-phenyl)-ethyl]-amide] | 0.1 to 4
11 | O=C(NCCc1cccc(Cl)c1)c1cnn(-c2ccc(F)cc2)c1C(F)(F)F [Compound 480, 1-(4-Fluoro-phenyl)-5-trifluoromethyl-1H-pyrazole-4-carboxylic acid [2-(3-chloro-phenyl)-ethyl]-amide] | 0.1 to 4
12 | NS(=O)(=O)c1cccc(NC(=O)c2cnn(-c3ccc(Cl)cc3)c2C(F)(F)F)c1 [Compound 1054, 1-(4-Chloro-phenyl)-5-trifluoromethyl-1H-pyrazole-4-carboxylic acid (3-sulfamoyl-phenyl)-amide] | 0.1 to 4
13 | CN(C)CCNS(=O)(=O)c1cccc(NC(=O)c2cnn(-c3ccc(Cl)cc3)c2C(F)(F)F)c1 [Compound 1175, 1-(4-Chloro-phenyl)-5-trifluoromethyl-1H-pyrazole-4-carboxylic acid [3-(2-dimethylamino-ethylsulfamoyl)-phenyl]-amide] | 4.1 to 10
